From PMC9920246, “Entinostat-Bortezomib Hybrids against Multiple Myeloma” (Molecules, 2023) come the findings set out here.

Assay [1] concerns RPMI 8226/BTZ100 cells. The assay is described as follows: cells. In kind it is cell-based, human. As to conditions: for IC50: read-out: IC50 Value Antiproliferative Activity RPMI 8226/BTZ100; for Increased resistance (RPMI 8226/BTZ100 vs. RPMI 8226): ratio of IC50 in resistant vs. parental cells.
In assay [2] the target is T1, 26S proteasome (Homo sapiens, UniProt P28074).
T1 sequence (P28074 60-263): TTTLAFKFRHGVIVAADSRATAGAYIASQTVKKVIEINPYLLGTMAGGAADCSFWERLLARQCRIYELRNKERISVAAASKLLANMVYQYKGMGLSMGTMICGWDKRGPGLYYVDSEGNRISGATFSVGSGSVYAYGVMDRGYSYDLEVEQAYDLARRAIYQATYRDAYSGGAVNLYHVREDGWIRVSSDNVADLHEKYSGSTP
The experiment in a line: Proteasome inhibitory activity (Suc-LLVY-amc) in RPMI 8226 cell lysate. The assay is classed as biochemical. On the procedure: RPMI 8226 cells (1 × 10^6 cells/mL) were collected, centrifuged, and washed twice with cold PBS (Gibco). The supernatant was discarded, and 200 μL of ice-cold lysis buffer (NP40 cell lysis buffer (Invitrogen, Eugene, OR, USA), supplemented with 1 mM PMSF (Sigma) and protease inhibitor cocktail (Sigma), was added to the pellet. Cells were kept on ice for 30 min and vortexed every 10 min. Samples were then centrifuged at 4 °C for 10 min at 16,000× g. Supernatant containing the proteins was collected. Protein quantification was performed using the Coomassie (Bradford) Protein Assay Kit (ThermoFisher, Waltham, MA, USA) following the manufacturer instructions. In each well of a 96-well black plate (ThermoFisher), 10 µg of proteins were mixed with assay buffer (50 mM Tris-HCl, pH 7.5, 40 mM KCl, 5 mM MgCl2, 0.5 mM ATP, 1 mM DTT, 0.5 mg/mL BSA) in 180 µL total volume. […] The plate was then incubated for 30 min at 37 °C. After incubation, the reaction was started by adding the fluorometric peptide substrate Suc-LLVY-amc (Bio-Techne, Minneapolis, MN, USA) at a final concentration of 100 µM, except for the blank wells. Following 1 h incubation at 37 °C in the dark, the fluorescence signal was red (excitation: 380 nm, emission: 440–460 nm) using a Cytation 3 plate reader (BioTek). The percentage of 26S proteasome activity was measured by comparing the fluorescence of the sample treated with the vehicle control wells and multiplied by 100. The IC50 value was calculated as mentioned above, and each compound was tested in triplicate in three independent experiments.

Assay [3] deals with RPMI 8226 cells. The assay is described as follows: Antiproliferative assay (XTT, 72 h). The assay is classed as cell-based, human. As to conditions: for IC50: RPMI 8226 cells, 72 h, XTT, mean ± SD, n = 3; for Fold less active than compound 3 in RPMI 8226 cells: compared to compound 3. A general note: Tetrazolium assays rely on reduction of a dye to a coloured formazan, in cell work by metabolically active cells.

Assay [4] deals with 3D co-culture spheroids containing RPMI 8226 cells and mesenchymal stem cells (MSC) in a 5:1 ratio. The experiment in a line: Antiproliferative assay in 3D co-culture spheroids (CellTiter-Glo 3D, 48 h). In kind it is cell-based, human. The settings on record: RPMI 8226 + MSC 5:1 spheroids, mean ± SD, n = 3. Here is the method:
The multiple myeloma human plasma cells RPMI 8226 were purchased from American Type Culture Collection (ATCC, Manassas, VA, USA) and cultured in RPMI 1640 medium (Gibco, Paisley, UK) supplemented with 50 µg/mL streptomycin sulfate, 50 U/mL penicillin G sodium salt (Gibco, Grand Island, NY, USA) and 10% fetal bovine serum (FBS) (Biowest, Nuaillé, France). […] Human MSC from the bone marrow were purchased from PromoCell and were cultured in Mesenchymal Stem Cell Growth Medium 2 (PromoCell, Heidelberg, Germany) supplemented with 100 μg/mL streptomycin sulfate and 100 U/mL penicillin G sodium salt.
RPMI 8226 cells and MSC were mixed in a 5:1 ratio. The cell mixture was centrifuged, and medium containing 20% collagen I (Gibco) adjusted to pH 7 was added to the cell pellet. Five μL drops were plated in each well of an ice-cold 96-well ultra-low attachment U-bottom plate (Corning, Kennebunk, MA, USA) and the plate was incubated for 30 min at 37 °C and 5% CO2 atmosphere. After the incubation, 200 μL of RPMI 1640 medium (Gibco) supplemented with 50 µg/mL streptomycin sulfate, 50 U/mL penicillin G sodium salt (Gibco) and 10% FBS (Biowest) was added to each well. The 3D spheroids were formed after 48 h.
RPMI 8226 and RPMI 8226/BTZ100 cells were seeded in 96-well plates (Costar, Kennebunk, MA, USA) at a density of 15,000 cells per well and directly treated for 72 h with the various compounds using increasing concentrations (0.31–2000 nM). […] Following the treatment, 100 μL of medium was carefully removed from each well and collagenase (1.5 μL of a 100 mg/mL solution, Sigma) was added. The plate was shaken at 37 °C for 10 min at 350 rpm. Then, 100 μL of CellTiter-Glo 3D reagent (Promega, Fitchburg, WI, USA) was added to each well. The plate was incubated for 5 min at 37 °C under agitation at 250 rpm, followed by 25 min at room temperature without agitation. Finally, the luminescence was measured using a Cytation 3 plate reader (BioTek). The percentage of cell proliferation and calculation of the IC50 value were determined as previously described. Each compound was tested in triplicate in three independent experiments.

Assay [5] has as its system HDAC. The assay is described as follows: HDAC inhibitory activity in RPMI 8226 cells (MAL substrate, UHPLC-MS). The settings on record: 8 h; for Inhibition of HDAC activity: 10 µM. In kind it is cell-based, human. On the procedure:
RPMI 8226 cells were seeded in 96-well plates (Costar) at a density of 15,000 cells per well in 25 µL of medium containing the HDAC substrate N-(4-methyl-7-aminocoumarinyl)-Nα-(t-butoxycarbonyl)-Nω-acetyllysineamide (21 µM, MAL, Sigma). The cells were directly treated with the compounds at 10 µM or with Ent (0.4–250 µM) for 8 h to obtain a final volume of 50 µL. […] Following the incubation, the reaction was stopped by adding 10 µL of 6X RIPA buffer, supplemented with protease inhibitor (Sigma). Then, 160 µL of cold acetonitrile were added and the plate was placed for 10 min at −80 °C. The plate was centrifuged at 5000× g for 10 min at 4 °C, and the supernatant was transferred into a UHPLC-adapted 96-well plate (Nunc 96-well plate conical bottom, ThermoFisher) and sealed. The substrate (MAL) and its deacetylated product (dMAL) were measured using a UHPLC-MS method as previously described. The percentage of HDAC inhibition is given by 100 − [(tested sample × 100/control sample)], and the dose-response curve of Ent was established.

[6] abbreviates: 26S proteasome in RPMI 8226 cell lysate, 30 min preincubation, Suc-LLVY-amc 100 µM, mean ± SD, n = 3; read-out: IC50 Value PI Activity.
Where [7] appears, read: RPMI 8226 cells resistant to BTZ, 72 h, XTT, mean ± SD, n = 3.
Setting [8] is: read-out: IC50 Value PI Activity; 26S proteasome in RPMI 8226 cell lysate, 30 min preincubation, Suc-LLVY-amc 100 µM, mean ± SD, n = 3.

Each structure is given as a SMILES string. Where two headings read alike, the source gives them in different places.

`CC(C)C[C@H](NC(=O)[C@@H](Cc1ccccc1)NC(=O)c1cnc(C(=O)NCc2ccc(C(=O)Nc3ccccc3N)cc2)cn1)B1OC2CC3CC(C3(C)C)[C@@]2(C)O1` (stereo partly drawn) [Compound 5, N^2-(4-((2-aminophenyl)carbamoyl)benzyl)-N^5-((2R)-1-(((1R)-3-methyl-1-((3aR)-3a,5,5-trimethylhexahydro-4,6-methanobenzo[d][1,3,2]dioxaborol-2-yl)butyl)amino)-1-oxo-3-phenylpropan-2-yl)pyrazine-2,5-dicarboxamide]: the IC50 was determined as 203 ± 36.1 nM in assay [1] (Homo sapiens, RPMI-8226, 72 h); 14.8 ± 2.5 nM in assay [2] (setting [6]); 25.2 ± 2.2 nM in assay [3] (Homo sapiens); 65.1 ± 14.1 nM in assay [4] (Homo sapiens). Moreover, in assay [1], the “Increased resistance (RPMI 8226/BTZ100 vs. RPMI 8226)” value amounted to 8.0 fold.
Take `CC(C)C[C@H](NC(=O)[C@@H](Cc1ccc(N(CCCl)CCCl)cc1)NC(=O)c1cnccn1)B1OC2CC3CC(C3(C)C)[C@]2(C)O1` (stereo partly drawn) [Compound 8, N-((2R)-3-(4-(bis(2-chloroethyl)amino)phenyl)-1-(((1R)-3-methyl-1-((3aS)-3a,5,5-trimethylhexahydro-4,6-methanobenzo[d][1,3,2]dioxaborol-2-yl)butyl)amino)-1-oxopropan-2-yl)pyrazine-2-carboxamide]: the IC50 in assay [1] (setting [7]) is 1010 ± 88.6 nM; in assay [2] (setting [8]), 12.1 ± 1.1 nM; in assay [3], 19.6 ± 0.4 nM; in assay [4], 30 ± 1.6 nM.
For `CC(C)C[C@H](NC(=O)[C@@H](Cc1ccccc1)NC(=O)c1cnc(C(=O)Nc2ccccc2N)cn1)B1OC2CC3CC(C3(C)C)[C@]2(C)O1` (stereo partly drawn) [Compound 3, N^2-(2-aminophenyl)-N^5-((2R)-1-(((1R)-3-methyl-1-((3aS)-3a,5,5-trimethylhexahydro-4,6-methanobenzo[d][1,3,2]dioxaborol-2-yl)butyl)amino)-1-oxo-3-phenylpropan-2-yl)pyrazine-2,5-dicarboxamide], the IC50 in assay [1] (Homo sapiens, RPMI-8226, 72 h) stood at 158 ± 15.8 nM; in assay [2] (setting [6]) it was 27.2 ± 6.2 nM; in assay [3] (Homo sapiens), 9.5 ± 1.4 nM; in assay [4] (Homo sapiens), 13.1 ± 6.9 nM. Further, the “Increased resistance (RPMI 8226/BTZ100 vs. RPMI 8226)” value in assay [1] was 16.6 fold. Also, in assay [5], the “Inhibition of HDAC activity” value came to 33%.
On to `CC(C)C[C@H](NC(=O)[C@@H](Cc1ccccc1)NC(=O)c1ccc(C(=O)Nc2ccccc2N)cc1)B1OC2CC3CC(C3(C)C)[C@]2(C)O1` (stereo partly drawn) [Compound 2, N^1-(2-aminophenyl)-N^4-((2R)-1-(((1R)-3-methyl-1-((3aS)-3a,5,5-trimethylhexahydro-4,6-methanobenzo[d][1,3,2]dioxaborol-2-yl)butyl)amino)-1-oxo-3-phenylpropan-2-yl)terephthalamide], for which the IC50 came out at 112 ± 13 nM in assay [1] (Homo sapiens, RPMI-8226, 72 h); 9.5 ± 2.3 nM in assay [2] (setting [6]); 37.1 ± 2.9 nM in assay [3] (Homo sapiens); 32.5 ± 7.5 nM in assay [4] (Homo sapiens). In addition, the “Increased resistance (RPMI 8226/BTZ100 vs. RPMI 8226)” value in assay [1] is 3.0 fold. In addition, the “Fold less active than compound 3 in RPMI 8226 cells” value in assay [3] was “ca. 4 times”. Further, the “Inhibition of HDAC activity” value in assay [5] amounted to 50%.
`Nc1ccccc1NC(=O)c1ccc(CNC(=O)OCc2cccnc2)cc1` [Ent, entinostat]: the IC50 in assay [1] (Homo sapiens, RPMI-8226, 72 h) stood at 562 ± 51.7 nM; in assay [3] (Homo sapiens) it was 329 ± 25.7 nM; in assay [4] (Homo sapiens), 349 ± 133 nM; in assay [5] (0.4–250 µM, read-out: HDAC inhibition IC50), 9300 ± 700 nM. Besides, the “Inhibition of HDAC activity” value in assay [5] stood at 51%.
`CC(C)C[C@H](NC(=O)[C@@H](Cc1ccccc1)NC(=O)Cc1ccc(C(=O)Nc2ccc(F)cc2N)cc1)B1OC2CC3CC(C3(C)C)[C@@]2(C)O1` (stereo partly drawn) [Compound 7, N-(2-amino-4-fluorophenyl)-4-(2-(((2R)-1-(((1R)-3-methyl-1-((3aR)-3a,5,5-trimethyl-hexahydro-4,6-methanobenzo[d][1,3,2]dioxaborol-2-yl)butyl)amino)-1-oxo-3-phenylpropan-2-yl)amino)-2-oxoethyl)benzamide]: the IC50 stood at 831 ± 139 nM in assay [1] (Homo sapiens, RPMI-8226, 72 h); 7.2 ± 1.7 nM in assay [2] (setting [6]); 31.4 ± 1.7 nM in assay [3] (Homo sapiens); 89.3 ± 13.6 nM in assay [4] (Homo sapiens). Also, in assay [5], the “Inhibition of HDAC activity” value is recorded as 37%.
`CC(C)C[C@H](NC(=O)[C@@H](Cc1ccc(N(CCCl)CCCl)cc1)NC(=O)c1cnc(C(=O)Nc2ccccc2N)cn1)B1OC2CC3CC(C3(C)C)[C@]2(C)O1` (stereo partly drawn) [Compound 11, N^2-(2-aminophenyl)-N^5-((2R)-3-(4-(bis(2-chloroethyl)amino)phenyl)-1-(((1R)-3-methyl-1-((3aS)-3a,5,5-trimethylhexahydro-4,6-methanobenzo[d][1,3,2]dioxaborol-2-yl)butyl)amino)-1-oxopropan-2-yl)pyrazine-2,5-dicarboxamide]: the IC50 in assay [1] (setting [7]) is 462 ± 107 nM; in assay [2] (setting [8]), above 50 nM; in assay [3] it was 22.9 ± 2.6 nM; in assay [4] it was 39.9 ± 12.1 nM. Besides, the “Fold less active than compound 3 in RPMI 8226 cells” value in assay [3] is given as around 2.4 times. In addition, the “Inhibition of HDAC activity” value in assay [5] was 25%.
For `CC(C)C[C@H](NC(=O)[C@@H](Cc1ccc(N(CCCl)CCCl)cc1)NC(=O)c1cnc(Cl)cn1)B1OC2CC3CC(C3(C)C)[C@]2(C)O1` (stereo partly drawn) [Compound 9, N-((2R)-3-(4-(bis(2-chloroethyl)amino)phenyl)-1-(((1R)-3-methyl-1-((3aS)-3a,5,5-trimethylhexahydro-4,6-methanobenzo[d][1,3,2]dioxaborol-2-yl)butyl)amino)-1-oxopropan-2-yl)-5-chloropyrazine-2-carboxamide], the IC50 in assay [1] (setting [7]) was 1030 ± 205 nM; in assay [2] (setting [8]), above 50 nM; in assay [3] it was 37.6 ± 1.1 nM; in assay [4], 188 ± 42.5 nM.
